Reference: paper PMC5526551, “New hydrazonoindolin-2-ones: Synthesis, exploration of the possible anti-proliferative mechanism of action and encapsulation into PLGA microspheres” (PLoS ONE, 2017)
pIC50: −log10 of the molar value. Read-outs that look alike come from different tables or passages of the source.

Key:
[1] = tested on: HT-29, ZR-75 and A-549 cell lines; test: Average anti-proliferative activity over the three cancer cell lines; format: cell-based, human; details: Homo sapiens, average of HT-29, ZR-75, A-549; for inhibition at 30 µM: read-out: Average Growth Inhibition %
Experimental: Twenty compounds, i.e. 4a-o and 7a-e, were analyzed for cancer cell growth inhibitory activity. These studies were carried out using cells derived from human lung, colon and breast tumors (A549, HT-29 and ZR-75 cells, respectively). This initial assessment of activity tested each compound in quadruplicate at a single concentration of 30 μM, if solubility permitted.
Therefore, they were subjected to quantitative inhibitory concentration 50% (IC50) determination for their cell growth inhibitory activity towards the A549, HT-29 and ZR-75 cancer cell lines.
A549, HT-29, ZR-75 were obtained from the American Type Culture Collection (ATCC). Cells were harvested from 90-95% confluent 10 cm dishes, and diluted in growth media (RPMI-1640 supplemented with 5% fetal bovine serum). An appropriate concentration of cells were prepared to add 1,250 cells in a volume of 25 µL per well in tissue culture treated Griener 384-well microplates, then incubated overnight at 37°C. Compound 7e was diluted to a concentration of 30 µM in DMSO. Concentrated dosing solutions of twice the final concentration were prepared by dilution of the DMSO stocks 1:500 in growth media. Two-fold serial dilutions were then prepared in medium containing 0.2% DMSO to maintain a constant concentration of vehicle throughout the concentration range of the compound. Each of these was added in an equal volume (25 µL) to four wells on each cell assay plate, along with the vehicle control. The highest concentration for serial dilutions of the positive control (sunitinib) was prepared exactly as the experimental compound 7e. Cells were incubated with the compounds for a further 72 h.
The potency of compounds was determined using the non-linear dose response algorithm (four-parameter logistic fit) with GraphPad Prism 5 software.

[2] = tested on: phosphorylated Rb protein in A549 cells; test: Rb phosphorylation (immunofluorescent imaging); format: cell-based; details: Homo sapiens, read-out: IC50 for reduction in Rb phosphorylation
Experimental: Compound 7e was analyzed for effects on various aspects of cell cycle progression in human cancer cells. These studies were carried out using cells derived from lung adenocarcinoma (A549). This follow-up assessment of activity tested compounds used immunofluorescent imaging of phosphorylated Rb protein and the total DNA content of each cell to determine the cell cycle phase. The ability of the test compounds to affect the cell cycle and Rb phosphorylation was tested over a range of concentrations from less than 100 nM to 50 μM.
Fig 5 Dose-dependent changes in cell cycle. Distribution of cells within the cell cycle as well as total cell numbers were quantitated by fluorescent staining of nuclear DNA with DAPI. Phosphorylated Rb protein was detected by indirect immunofluorescence followed by automated image acquisition and analysis. […] All IC50 values are given under one unlabelled substance, with the y-axis title of each plot written in front as the measure.
A549 cells were harvested from a 90% confluent 10 cm dish and diluted in growth medium. An appropriate concentration of cells were prepared to add 5,000 cells in a volume of 100 µL per well in tissue culture treated PerkinElmer optical bottom ViewPlate microplates, then incubated overnight at 37°C. The following day, compound 7e and the positive control, sunitinib, were diluted in DMSO to concentrations 1000-fold above the maximum tested concentration.
Concentrated dosing solutions of twice the final concentration were prepared by dilution of the DMSO stocks 1:500 in growth media. Three-fold dilutions of each dosing medium were then prepared in medium containing 0.2% DMSO to maintain a constant concentration of vehicle throughout the concentration range of each compound. Each of these was added in equal volume (100 µL) to each well on the assay plate, along with the vehicle control. One plate of cells was incubated with the compounds for a further 24 h, and a separate plate was incubated with the compounds for 48 h.
At the end of the respective treatment periods, 150 µL per well of neutral buffered formalin fixative (10% paraformaldehyde) was rapidly added to each plate and incubated at room temperature for 20 min. […] Phosphorylated Rb protein (p-Rb) was detected by 1 h incubation with anti-p-Rb rabbit monoclonal antibody (Cell Signaling #8516) diluted 1:1600 in antibody dilution buffer (1% bovine serum albumin and 0.3% Triton X-100 in PBS). […] Anti-Phospho Ser807/811-Rb antibody (Cell Signalling cat #8516) was detected by 1 h incubation with goat anti-rabbit AlexaFluor 488 conjugate (InVitrogen cat #A-11008) diluted 1:500 in antibody dilution buffer. […] Fluorescent micrographs were analyzed using Molecular Devices MetaXpress multi-wavelength scoring image analysis program to quantitate Rb phosphorylation. […]

SMILES | inhibition at 30 µM [1] [%] | pIC50 [1] | pIC50 ([2]; A549, 24 h) | pIC50 ([2]; A549, 48 h)
O=C1Nc2ccc(Br)cc2C1=NN=C1C(=O)N(Cc2ccccc2)c2ccccc21 [Compound 7e, 1-Benzyl-3-((5-bromo-2-oxoindolin-3-ylidene)hydrazono)indolin-2-one] | 96.3 | 5.63 | 5.59 | 5.61
CCN(CC)CCNC(=O)c1c(C)[nH]c(/C=C2\C(=O)Nc3ccc(F)cc32)c1C [Sunitinib, sunitinib, reference compound] | 78.7 | 5.09 | 5.50 | 4.85
